# “Also recorded” adds a separate entry of the source.
# B1: interferon γ-1b: treatment option for FRDA to increase FXN levels, dropped at phase 3 (protein, UniProt P01579 24-161, looked up)
# Interferon gamma: QDPYVKEAENLKKYFNAGHSDVADNGTLFLGILKNWKEESDRKIMQSQIVSFYFKLFKNFKDDQSIQKSVETIKEDMNVKFFNSNKKKRDDFEKLTNYSVTDLNVQRKAIHELIQVMAELSPAAKTGKRKRSQMLFRG
# Key:
# FRDAkd mice = assay: Survival of FRDAkd mice after FXN knockdown (DOX); type: in vivo, mouse; conditions: combination versus individual treatment
# Procedure: FIG. 4. […] No mortality was observed FRDAkd mice (DOX) treated with quercetin, taurine, and EGCG. FRDAkd mice were treated with doxycycline (DOX for FXN knockdown) or with doxycycline plus 100 mg/kg/day taurine, 35 mg/kg/day quercetin, and 4.6 mg/kg/day EGCG, and 0.5 mg/kg/day of ferrous sulfate for 16 weeks. N=10 animals per group.
# NRF2 [1] = conditions: FRDA patients with moderate dysfunction (Lynch D R et al. 2021); cited from earlier work
# FXN [2] = assay: FXN expression in FRDA patient fibroblasts (Western blot, qPCR); type: cell-based, human
# Procedure: FIG. 2A. […] Expression levels were determined using Real-time PCR and normalized to Hprtl. Experiments were conducted in triplicates and values expressed as mean±SEM. One-way ANOVA and 0.05**
# (§1) FIG. 2B. […] N=3. One-way ANOVA and Welch's t-test, ±SEM. *p≤0.05, **p≤0.01, ***p 0.001.
# (§2) FIG. 3A-B. Western blot analysis of FXN and NRF2 in FRDA cells and FRDAkd mice after quercetin treatment.
# (§3) FIG. 3C-D. Western blot analysis of FXN and NRF2 in FRDA cells and FRDAkd mice after quercetin treatment. […] Tg Low Dox animals were treated with 625 mg/kg doxycycline (FXN knockdown) and Tg Low Dox+Quercetin animal was provided with 625 mg/kg doxycycline plus 35 mg/kg/day of quercetin. […] Overall, quercetin increased the expression of FXN and NRF2 in both in vitro and in vivo conditions.
# NRF2 [3] = assay: NRF2 expression in FRDA patient fibroblasts (Western blot, qPCR); type: cell-based, human
# From the text: as §1, §2
# FXN [4] = assay: FXN expression in tissues of FRDAkd mice (Western blot); type: in vivo, mouse; conditions: for expression of FXN (Western blot): 35 mg/kg/day quercetin, 625 mg/kg doxycycline
# Procedure: as §2, §3
# NRF2 [5] = assay: NRF2 expression in tissues of FRDAkd mice (Western blot); type: in vivo, mouse; conditions: for expression of NRF2 (Western blot): 35 mg/kg/day quercetin, 625 mg/kg doxycycline
# Procedure: as §2, §3
# [6] = tested on: iron metabolism-related genes; assay: Expression of iron metabolism-related genes in cell lines (Real-time PCR); type: cell-based, human; conditions: various cell lines, including FRDA patient fibroblast cell lines
# Procedure: FIG. 2A. Graphs illustrating expression levels of frataxin (FXN) and various iron metabolism-related genes in control fibroblasts (age and sex matched) or fibroblasts from a patient with Friedreich's Ataxia (FRDA) treated with vehicle or 75 μM quercetin. Expression levels were determined using Real-time PCR and normalized to Hprtl. Experiments were conducted in triplicates and values expressed as mean±SEM. One-way ANOVA and 0.05**
# [7] = previous studies (Lesjak M et al. 2019); cited from earlier work
# FXN [8] = conditions: phase 3 randomized controlled trial, FRDA; cited from earlier work
# [9] = FRDA fibroblast cell line, 24 hours quercetin, 75 μM and 100 μM
# [10] = FRDA patient fibroblast cell lines (in vitro), summary statement
# [11] = fibroblasts from patients with FRDA, quercetin dose series
# [12] = several tissues from quercetin-treated FRDAkd mice (in vivo), summary statement
molecule,measurement,setting,value
"O=C(O[C@@H]1Cc2c(O)cc(O)cc2O[C@@H]1c1cc(O)c(O)c(O)c1)c1cc(O)c(O)c(O)c1 [EGCG, (2R,3R)-3′,4′,5,5′,7-Pentahydroxyflavan-3-yl 3,4,5-trihydroxybenzoate]",survival in mouse FRDA models,FRDAkd mice,did not improve survival rates
CC1(C)CC[C@]2(NC(=O)C(C)(F)F)CC[C@]3(C)[C@H](C(=O)C=C4[C@@]5(C)C=C(C#N)C(=O)C(C)(C)[C@@H]5CC[C@]43C)[C@@H]2C1 [omaveloxolone],neurological function,NRF2 [1],improved
"O=c1c(O)c(-c2ccc(O)c(O)c2)oc2cc(O)cc(O)c12 [quercetin, 3,3′,4′,5,7-Pentahydroxyflavone]","expression of FXN (Western blot, independent replication)","FXN [2]; FRDA fibroblast cell line, 24 hours quercetin, 7 μM dose",increased expression
same,expression of FXN (Western blot),FXN [2]; [9],Increased expression
same,FXN expression,FXN [2]; [10],increase; also recorded: enhanced
same,FXN marker gene expression (qPCR),FXN [2]; [11],dose-dependent effects
same,expression of NRF2 (Western blot),NRF2 [3]; [9],Increased expression
same,NRF2 expression,NRF2 [3]; [10],increase; also recorded: enhanced
same,NRF2 marker gene expression (qPCR),NRF2 [3]; [11],dose-dependent effects
same,expression of FXN (Western blot),"FXN [4]; FRDAkd mice heart, eight weeks",Increased expression
same,expression of FXN (Western blot),"FXN [4]; FRDAkd mice liver, three weeks",Increased expression
same,FXN expression,FXN [4]; [12],increase; also recorded: enhanced
same,expression of NRF2 (Western blot),"NRF2 [5]; FRDAkd mice heart, eight weeks",Increased expression
same,expression of NRF2 (Western blot),"NRF2 [5]; FRDAkd mice liver, three weeks",Increased expression
same,NRF2 expression,NRF2 [5]; [12],increase; also recorded: enhanced
same,expression of several genes involved in iron metabolism,[6],increase expression
same,survival in mouse FRDA models,FRDAkd mice,did not improve survival rates
same,serum and tissue iron,[7],depletion
"NCCS(=O)(=O)O [taurine, 2-Aminoethane-1-sulfonic acid]",survival in mouse FRDA models,FRDAkd mice,did not improve survival rates
B1,outcome measures,FXN [8],failure to show any improvement

# From patent publication US20250017958A1, “COMBINATORIAL THERAPEUTIC APPROACH FOR FRIEDREICH'S ATAXIA” (University of Florida Research Foundation, Incorporated, priority 2021, published 2025)
